Assay results as given in patent publication EP0428132A1, “Pradimicin derivatives” (Bristol-Myers Squibb Company, priority 1989, dated 1991).
≈ marks a conversion by molar mass, not a printed value.

Assays:
[1] = test system: FA21436; assay: In vitro antifungal activity, serial agar dilution method (Table 1); assay type: cell-based, Asoergukkys flavus; details: for MIC: 40 h, pH 7, read-out: MIC, Asoergukkys flavus FA21436
Method: (§1) The inoculum size was adjusted to 10⁶ cells/ml, and a volume of approximately 0.003 ml of fungal suspension was applied to the surface of the antibiotic containing agar plates with a multiinoculator. After incubation, the lowest concentration of antibiotic causing virtually complete inhibition of fungal growth was determined as the minimum inhibitory concentration (MIC). Table 1. [table]

[2] = test system: Aspergillus fumigatus IAM2034; assay: as above; assay type: cell-based; details: Sabouraud dextrose agar (pH 7.0), 28°C for 40 hours; for MIC: Aspergillus fumigatus, IAM2034
Method: as §1

[3] = test system: Aspergillus fumigatus IAM2530; assay: as above; assay type: cell-based; details: Sabouraud dextrose agar (pH 7.0), 28°C for 40 hours; for MIC: Aspergillus fumigatus, IAM2530
Method: as §1

[4] = test system: Blastomyces dermatidis D40; assay: as above; assay type: cell-based; details: for MIC: Blastomyces, D40, 40 h, pH 7, read-out: MIC, Blastomyces dermatidis D40
Method: as §1

[5] = test system: Candida albicans A9540; assay: as above; assay type: cell-based; details: Sabouraud dextrose agar (pH 7.0), 28°C for 40 hours; for MIC: Candida albicans, A9540
Method: as §1

[6] = test system: Candida albicans IAM4888; assay: as above; assay type: cell-based; details: Sabouraud dextrose agar (pH 7.0), 28°C for 40 hours; for MIC: Candida albicans, IAM4888
Method: as §1

[7] = test system: Cryptococcus neoformans D49; assay: as above; assay type: cell-based; details: for MIC: Cryptococcus neoformans, D49, 40 h, pH 7, read-out: MIC, Cryptococcus neoformans D49
Method: as §1

[8] = test system: Cryptococcus neoformans IAM4514; assay: as above; assay type: cell-based; details: Sabouraud dextrose agar (pH 7.0), 28°C for 40 hours; for MIC: Cryptococcus neoformans, IAM4514
Method: as §1

[9] = test system: Fusarium moniliforme A2284; assay: as above; assay type: cell-based; details: Sabouraud dextrose agar (pH 7.0), 28°C for 40 hours; for MIC: Fusarium verticillioides, A2284
Method: as §1

[10] = test system: Mucor spinosus IFO5317; assay: as above; assay type: cell-based; details: Sabouraud dextrose agar (pH 7.0), 28°C for 40 hours; for MIC: Mucor spinosus, IFO5317
Method: as §1

[11] = test system: Petriellidium boydii IFO8078; assay: as above; assay type: cell-based; details: Sabouraud dextrose agar (pH 7.0), 28°C for 40 hours; for MIC: Scedosporium boydii, IFO8078
Method: as §1

[12] = test system: Sprotricosis schenckii IFO8158; assay: as above; assay type: cell-based; details: for MIC: 40 h, pH 7, read-out: MIC, Sprotricosis schenckii IFO8158
Method: as §1

[13] = test system: Trichophyton mentagrophytes #4329; assay: as above; assay type: cell-based; details: Sabouraud dextrose agar (pH 7.0), 28°C for 40 hours; for MIC: Trichophyton mentagrophytes
Method: as §1

[14] = test system: Trichophyton mentagrophytes D155; assay: as above; assay type: cell-based; details: Sabouraud dextrose agar (pH 7.0), 28°C for 40 hours; for MIC: Trichophyton mentagrophytes, D155
Method: as §1

[15] = test system: Candida albicans A25578; assay: In vitro antifungal activity, serial agar dilution method (Table 1a); assay type: cell-based; details: A25578, YM agar (pH 7.0, Difco), 30°C for 2 days (yeast) or 4 days (filamentous fungi), read-out: MICs, Candida albicans A25578
Method: as §1, with “(MIC).” for “(MIC). Table 1. [table]”

[16] = test system: Candida albicans A9540; assay: as above; assay type: cell-based; details: A9540, YM agar (pH 7.0, Difco), 30°C for 2 days (yeast) or 4 days (filamentous fungi), read-out: MICs, Candida albicans A9540
Method: as §1, with “(MIC).” for “(MIC). Table 1. [table]”

[17] = test system: Candida paratropicalis A25825; assay: as above; assay type: cell-based; details: YM agar (pH 7.0, Difco); 30°C for 2 days (yeast) or 4 days (filamentous fungi); read-out: MICs, Candida paratropicalis A25825
Method: as §1, with “(MIC).” for “(MIC). Table 1. [table]”

[18] = test system: Candida pseudotropicalis A25802; assay: as above; assay type: cell-based; details: Kluyveromyces marxianus, YM agar (pH 7.0, Difco), 30°C for 2 days (yeast) or 4 days (filamentous fungi), read-out: MICs, Candida pseudotropicalis A25802
Method: as §1, with “(MIC).” for “(MIC). Table 1. [table]”

[19] = test system: Candida tropicalis A25809; assay: as above; assay type: cell-based; details: YM agar (pH 7.0, Difco), 30°C for 2 days (yeast) or 4 days (filamentous fungi), read-out: MICs, Candida tropicalis A25809
Method: as §1, with “(MIC).” for “(MIC). Table 1. [table]”

[20] = test system: Candida tropicalis A25812; assay: as above; assay type: cell-based; details: A25812, YM agar (pH 7.0, Difco), 30°C for 2 days (yeast) or 4 days (filamentous fungi), read-out: MICs, Candida tropicalis A25812
Method: as §1, with “(MIC).” for “(MIC). Table 1. [table]”

[21] = test system: Cryptococcus neoformans A15053; assay: as above; assay type: cell-based; details: A15053, YM agar (pH 7.0, Difco), 30°C for 2 days (yeast) or 4 days (filamentous fungi), read-out: MICs, Cryptococcus neoformans A15053
Method: as §1, with “(MIC).” for “(MIC). Table 1. [table]”

[22] = test system: Microsporum canis WW10218; assay: as above; assay type: cell-based; details: WW10218, pH 7, read-out: MICs, Microsporum canis WW10218
Method: as §1, with “(MIC).” for “(MIC). Table 1. [table]”

[23] = test system: Microsporum gypseum WW1107; assay: as above; assay type: cell-based; details: Nannizzia gypsea, YM agar (pH 7.0, Difco), 30°C for 2 days (yeast) or 4 days (filamentous fungi), read-out: MICs, Microsporum gypseum WW1107
Method: as §1, with “(MIC).” for “(MIC). Table 1. [table]”

[24] = test system: Saccharomyces cerevisiae A25803; assay: as above; assay type: cell-based; details: YM agar (pH 7.0, Difco), 30°C for 2 days (yeast) or 4 days (filamentous fungi), read-out: MICs, Saccharomyces cerevisiae A25803
Method: as §1, with “(MIC).” for “(MIC). Table 1. [table]”

[25] = test system: Trichophyton mentagrophytes A26771; assay: as above; assay type: cell-based; details: A26771, YM agar (pH 7.0, Difco), 30°C for 2 days (yeast) or 4 days (filamentous fungi), read-out: MICs, Trichophyton mentagrophytes A26771
Method: as §1, with “(MIC).” for “(MIC). Table 1. [table]”

[26] = test system: Trichophyton rubrum A26761; assay: as above; assay type: cell-based; details: A26761, pH 7, read-out: MICs, Trichophyton rubrum A26761
Method: as §1, with “(MIC).” for “(MIC). Table 1. [table]”

[27] = Sabouraud dextrose agar (pH 7.0), 28°C for 40 hours

COc1cc(O)c2c(c1)C(=O)c1c(cc3c(c1O)-c1c(cc(C)c(C(=O)N[C@H](C)C(=O)O)c1O)[C@H](O[C@@H]1O[C@H](C)[C@H](N(C)C/C=C/C(=O)O)[C@H](O[C@@H]4OC[C@@H](O)[C@H](O)[C@H]4O)[C@H]1O)[C@H]3O)C2=O [Ex. 13, N-(trans-3-carboxy-2-propenyl) pradimicin A]
MIC [1]: 100 µg/mL (≈ 108 µM) | MIC [2]: 100 µg/mL (≈ 108 µM) | MIC [3]: 100 µg/mL (≈ 108 µM) | MIC [4]: > 100 µg/mL | MIC [5]: 100 µg/mL (≈ 108 µM) | MIC [6]: 50 µg/mL (≈ 54.1 µM) | MIC [7]: 50 µg/mL (≈ 54.1 µM) | MIC [8]: 25 µg/mL (≈ 27 µM) | MIC [9]: > 100 µg/mL | MIC [10]: > 100 µg/mL | MIC [11]: > 100 µg/mL | MIC [12]: 100 µg/mL (≈ 108 µM) | MIC [13]: > 100 µg/mL | MIC [14]: > 100 µg/mL

COc1cc(O)c2c(c1)C(=O)c1c(cc3c(c1O)-c1c(cc(C)c(C(=O)N[C@H](C)C(=O)O)c1O)[C@H](O[C@@H]1O[C@H](C)[C@H](N(C)C(=O)CN(C)C)[C@H](O[C@@H]4OC[C@@H](O)[C@H](O)[C@H]4O)[C@H]1O)[C@H]3O)C2=O [Ex. 16, N-(N,N-Dimethylglycyl) pradimicin A]
MIC [1]: > 50 µg/mL | MIC [2]: 12.5 µg/mL (≈ 13.5 µM) | MIC [3]: 12.5 µg/mL (≈ 13.5 µM) | MIC [4]: 50 µg/mL (≈ 54 µM) | MIC [5]: 6.3 µg/mL (≈ 6.8 µM) | MIC [6]: 6.3 µg/mL (≈ 6.8 µM) | MIC [7]: 3.4 µg/mL (≈ 3.67 µM) | MIC [8]: 3.1 µg/mL (≈ 3.35 µM) | MIC [9]: > 50 µg/mL | MIC [10]: > 50 µg/mL | MIC [11]: > 50 µg/mL | MIC [12]: 6.3 µg/mL (≈ 6.8 µM) | MIC [13]: 6.3 µg/mL (≈ 6.8 µM) | MIC [14]: 6.3 µg/mL (≈ 6.8 µM)

COc1cc(O)c2c(c1)C(=O)c1c(cc3c(c1O)-c1c(cc(C)c(C(=O)N[C@H](C)C(=O)O)c1O)[C@H](O[C@@H]1O[C@H](C)[C@H](N(C)C(N)=O)[C@H](O)[C@H]1O)[C@H]3O)C2=O [Ex. 17, N-carbamyl pradimicin B]
MIC [15]: 3.2 µg/mL (≈ 4.26 µM) | MIC [16]: 6.3 µg/mL (≈ 8.38 µM) | MIC [17]: 6.3 µg/mL (≈ 8.38 µM) | MIC [18]: 1.6 µg/mL (≈ 2.13 µM) | MIC [19]: 1.6 µg/mL (≈ 2.13 µM) | MIC [20]: 6.3 µg/mL (≈ 8.38 µM) | MIC [21]: 6.3 µg/mL (≈ 8.38 µM) | MIC [22]: 25 µg/mL (≈ 33.3 µM) | MIC [23]: 25 µg/mL (≈ 33.3 µM) | MIC [24]: 1.6 µg/mL (≈ 2.13 µM) | MIC [25]: 25 µg/mL (≈ 33.3 µM) | MIC [26]: 25 µg/mL (≈ 33.3 µM)

COc1cc(O)c2c(c1)C(=O)c1c(cc3c(c1O)-c1c(cc(C)c(C(=O)N[C@H](C)C(=O)O)c1O)[C@H](O[C@@H]1O[C@H](C)[C@H](N(C)C(=O)NS(=O)(=O)c4ccc(C)cc4)[C@H](O)[C@H]1O)[C@H]3O)C2=O [Ex. 19, N-(p-toluenesulfonylcarbamyl) pradimicin B]
MIC [15]: 12.5 µg/mL (≈ 13.8 µM) | MIC [16]: 12.5 µg/mL (≈ 13.8 µM) | MIC [17]: 25 µg/mL (≈ 27.6 µM) | MIC [18]: 3.2 µg/mL (≈ 3.53 µM) | MIC [19]: 6.3 µg/mL (≈ 6.95 µM) | MIC [20]: 12.5 µg/mL (≈ 13.8 µM) | MIC [21]: 6.3 µg/mL (≈ 6.95 µM) | MIC [22]: 12.5 µg/mL (≈ 13.8 µM) | MIC [23]: 50 µg/mL (≈ 55.2 µM) | MIC [24]: 3.2 µg/mL (≈ 3.53 µM) | MIC [25]: 50 µg/mL (≈ 55.2 µM) | MIC [26]: 50 µg/mL (≈ 55.2 µM)

COC(=O)/C=C/CN(C)[C@@H]1[C@H](O[C@@H]2OC[C@@H](O)[C@H](O)[C@H]2O)[C@@H](O)[C@H](O[C@H]2c3cc(C)c(C(=O)N[C@H](C)C(=O)O)c(O)c3-c3c(cc4c(c3O)C(=O)c3cc(OC)cc(O)c3C4=O)[C@@H]2O)O[C@@H]1C [compound 12, N-(trans-3-methoxycarbonyl-2-propenyl) pradimicin A]
MIC [1]: 25 µg/mL (≈ 26.6 µM) | MIC [2]: 12.5 µg/mL (≈ 13.3 µM) | MIC [3]: 12.5 µg/mL (≈ 13.3 µM) | MIC [4]: > 25 µg/mL | MIC [5]: > 25 µg/mL | MIC [6]: 25 µg/mL (≈ 26.6 µM) | MIC [7]: 6.3 µg/mL (≈ 6.71 µM) | MIC [8]: 6.3 µg/mL (≈ 6.71 µM) | MIC [9]: > 25 µg/mL | MIC [10]: > 25 µg/mL | MIC [11]: > 25 µg/mL | MIC [12]: 12.5 µg/mL (≈ 13.3 µM) | MIC [13]: 25 µg/mL (≈ 26.6 µM) | MIC [14]: 12.5 µg/mL (≈ 13.3 µM)

N-(sodiosulfomethyl) pradimicin A [Ex. 8]
MIC, Asoergukkys flavus FA21436 [1, 27]: 6.3 µg/mL | MIC, Aspergillus fumigatus IAM2034 [2]: 3.1 µg/mL | MIC, Aspergillus fumigatus IAM2530 [3]: 1.6 µg/mL | MIC, Blastomyces dermatidis D40 [4, 27]: 1.6 µg/mL | MIC, Candida albicans A9540 [5]: 6.3 µg/mL | MIC, Candida albicans IAM4888 [6]: 3.1 µg/mL | MIC, Cryptococcus neoformans D49 [7, 27]: 0.8 µg/mL | MIC, Cryptococcus neoformans IAM4514 [8]: 0.8 µg/mL | MIC, Fusarium moniliforme A2284 [9]: 3.1 µg/mL | MIC, Mucor spinosus IFO5317 [10]: > 50.0 µg/mL | Partial Inhibition, Mucor spinosus IFO5317 ([10]; value in parentheses = Partial Inhibition): 6.3 µg/mL | MIC, Petriellidium boydii IFO8078 [11]: 6.3 µg/mL | MIC, Sprotricosis schenckii IFO8158 [12, 27]: 1.6 µg/mL | MIC, Trichophyton mentagrophytes #4329 [13]: 3.1 µg/mL | MIC, Trichophyton mentagrophytes D155 [14]: 6.3 µg/mL
